This is an account of results in publication PMC8842277, “Highly Antiproliferative Latonduine and Indolo[2,3-c]quinoline Derivatives: Complex Formation with Copper(II) Markedly Changes the Kinase Inhibitory Profile” (Journal of Medicinal Chemistry, 2022).

Molecules are shown by their SMILES. Like-named read-outs stand apart in the source and are kept apart here.

The nature of data set [1]: Proton dissociation constants by UV–vis titration. Format: physicochemical. The settings on record: 30–70% (w/w) DMSO–water, 298 K, I = 0.10 M (KCl). The procedure:
The protonation processes of HL^1nm and its morpholine counterpart HL^1 (Chart 3) and the solution stability of their copper(II) complexes (1nm and 1) were characterized by UV–vis spectrophotometry. […] Based on the characteristic changes in the UV–vis spectra for HL^1nm in the pH range 2–6 (Figure 3a), two relatively well-separated proton dissociation processes were observed and their pKa values were determined (Table 1).
An Agilent Carry 8454 diode array spectrophotometer was used to record the UV–visible (UV–vis) spectra in the interval 200–800 nm. The path length was 2 or 0.5 cm. Spectrophotometric titrations were performed on samples containing the proligands HL^1, HL^1nm, or their copper(II) complexes (1 and 1nm; see Chart 2) by a KOH solution in the presence of 0.1 M KCl in a DMSO:water 30:70 (w/w) mixture as a solvent at 25.0 ± 0.1 °C in the pH range from 2 to 11. […] An Orion 710A pH meter equipped with a Metrohm combined electrode (type 6.0234.100) and a Metrohm 665 Dosimat burette were used for the pH measurements and titrations. […] The average water ionization constant (pKw) is 14.52 ± 0.05, which corresponds well to the literature data.[103] Argon was passed over the solutions during the titrations. Proton dissociation constants (pKa) of the ligand, overall stability constants (log β) of the copper(II) complexes, and the individual spectra of the various species present in the solution were calculated by the computer program PSEQUAD.[104] β (MpLqHr) is defined for the general equilibrium pM + qL + rH MpLqHr as β (MpLqHr) = [MpLqHr]/[M]^p[L]^q[H]^r where M denotes the copper(II) ion and L the completely deprotonated ligand. The calculations were always made from the experimental titration data measured in the absence of any precipitate in the solution.

The test system of data set [2] is doxorubicin-sensitive Colo205 human colon adenocarcinoma cells. As to the kind of experiment: MTT antiproliferative assay. Format: cell-based. The settings on record: for selectivity factor (SF) Colo205: IC50 MRC-5/IC50 Colo205; for IC50: MTT, 72 h. The method, then: (§1) The in vitro antiproliferative activity of the compounds was tested in doxorubicin-sensitive Colo205 and multidrug-resistant Colo320 human colon adenocarcinoma cell lines as well as in normal human embryonal lung fibroblast cells (MRC-5) by MTT assay.
(§2) Human colonic adenocarcinoma cell lines Colo 205 doxorubicin-sensitive (ATCC-CCL-222) and Colo 320/MDR-LRP multidrug resistant over-expressing ABCB1 (MDR1)-LRP (ATCC-CCL-220.1) were purchased from LGC Promochem, Teddington, UK. The cells were cultured in an RPMI 1640 medium supplemented with 10% heat-inactivated fetal bovine serum, 2 mM L-glutamine, 1 mM Na-pyruvate, and 10 mM HEPES. The semi-adherent human colon cancer cells were detached with Trypsin-Versene (EDTA) solution for 5 min at 37 °C. An MRC-5 human embryonal lung fibroblast cell line (ATCC CCL-171) was purchased from LGC Promochem, Teddington, UK. The cells were cultured in Eagle’s minimal essential medium (EMEM, containing 4.5 g L^–1 glucose) supplemented with a non-essential amino acid mixture, a selection of vitamins, and 10% heat-inactivated fetal bovine serum. The HCT-116 colon carcinoma cells and isogenic p53-knock-out subline were a gift of Prof. Bert Vogelstein from The Johns Hopkins Oncology Center. Cells were cultured in McCoy’s 5A medium supplemented with 10% heat-inactivated fetal bovine serum and 4 mM L-glutamine. All cell lines were incubated at 37 °C, in a 5% CO2, 95% air atmosphere.
(§3) MRC-5 non-cancerous human embryonic lung fibroblast and human colonic adeno-carcinoma cell lines (doxorubicin-sensitive Colo 205 and multidrug resistant Colo 320 colonic adenocarcinoma cells) were used to determine the effect of compounds on cell growth. The effects of increasing concentrations of compounds on cell growth were tested in 96-well flat-bottomed microtiter plates. The compounds were dissolved in DMSO and stock solutions of 10 mM were prepared. These were further diluted in the appropriate cell culture medium by twofold serial dilution starting from 100 or 10 μM for the compounds. The adherent human embryonal lung fibroblast cells were cultured in 96-well flat-bottomed microtiter plates using EMEM supplemented with 10% heat-inactivated fetal bovine serum. The density of the cells was adjusted to 1 × 10^4 cells in 100 μL per well, the cells were seeded for 24 h at 37 °C, 5% CO2, then the medium was removed from the plates containing the cells, and the dilutions of compounds previously made in a separate plate were added to the cells in 200 μL. In the case of the colonic adenocarcinoma cells, the twofold serial dilutions of compounds were prepared in 100 μL of RPMI 1640, horizontally. The semi-adherent colonic adenocarcinoma cells were treated with Trypsin-Versene (EDTA) solution. They were adjusted to a density of 1 × 10^4 cells in 100 μL of RPMI 1640 medium and were added to each well, with the exception of the medium control wells. The final volume of the wells containing compounds and cells was 200 μL. The culture plates were incubated at 37 °C for 72 h; at the end of the incubation period, 20 μL of MTT (thiazolyl blue tetrazolium bromide, Sigma) solution (from a stock solution of 5 mg mL^–1) was added to each well. After incubation at 37 °C for 4 h, 100 μL of sodium dodecyl sulfate (SDS) (Sigma) solution (10% in 0.01 M HCI) was added to each well and the plates were further incubated at 37 °C overnight. Cell growth was determined by measuring the optical density (OD) at 540/630 nm with a Multiscan EX ELISA reader (Thermo Labsystems, Cheshire, WA, USA). […] Curves were fitted by GraphPad Prism software[57] using the sigmoidal dose–response model (comparing variable and fixed slopes). The IC50 values were obtained from at least three independent experiments. Tests in adherent HCT-116 colon carcinoma cells and an isogenic p53-knock-out subline thereof were performed in a similar manner, with 1.5 × 10^3 cells seeded in 100 μL of McCoy’s 5A medium (Sigma-Aldrich) per well. […]

In data set [3] the test system is multidrug-resistant Colo320 human colon adenocarcinoma cells. Nature of the data set: MTT antiproliferative assay. Format: cell-based. The settings on record: for selectivity factor (SF) Colo320: IC50 MRC-5/IC50 Colo320; for IC50: MTT, 72 h. The method, then: as §1, §2, §3
The test system of data set [4] is normal human embryonal lung fibroblast cells (MRC-5). Nature of the data set: MTT antiproliferative assay. The format is cell-based. The settings on record: read-out: IC50 MRC-5 benign, mean. The method, then:
as §1, §2, §3

Data set [5] can be described thus: Thermodynamic solubility, UV–vis of saturated solutions. The procedure:
The concentration of the compounds was determined by UV–vis spectrophotometry using stock solutions of the compounds with a known concentration dissolved in pure DMSO and 50% (v/v) DMSO/buffered aqueous solution for the calibration.

The test system of another data set is Colo320 cells. Nature of the data set: Apoptosis assay, Annexin-V-FITC/PI flow cytometry. The settings on record: 3 h induction. The method, then: An apoptosis assay was performed by flow cytometry via the analysis of multidrug-resistant Colo320 cells stained with Annexin-V-FITC and propidium iodide (PI).
Colo320 cells were treated at the indicated concentration of the compounds. The dual parametric dot plots combining Annexin-V (FL1) and PI (FL3) fluorescence show the viable cell population in the lower left quadrant Annexin-V–/PI– (Q4), the early apoptotic cells in the lower right quadrant Annexin-V+/PI– (Q3), and the late apoptotic and necrotic cells in the upper right quadrant Annexin-V+/PI+ (Q2).
The assay was carried out for selected compounds using an Annexin V-FITC Apoptosis Detection Kit (cat. no. APOAF-50TST) from Sigma according to the manufacturer’s instructions. The concentration of the Colo320 cell suspension was adjusted to approximately 0.5 × 10^6 cells/mL in an RPMI 1640 medium, and the cell suspension was distributed in 1 mL of aliquots into a 24-well plate and then incubated overnight at 37 °C and 5% CO2. On the following day, the medium was removed and replaced by 1 mL of RPMI medium containing the compounds except the control samples. […] After the incubation period, the samples were washed with PBS and fresh RPMI 1640 medium was added to the samples. The cells were incubated overnight at 37 °C and 5% CO2. The next day, 200 μL of 0.25% Trypsin (Trypsin-Versen) was added to the samples until cells appeared detached followed by the addition of 400 μL of RPMI 1640 medium supplemented with 10% bovine serum. The cells were collected in Eppendorf tubes and centrifuged at 2000g for 2 min. The harvested cells were resuspended in fresh serum-free RPMI 1640 culture medium. After this step, the apoptosis assay was carried out according to the instructions of the manufacturer. The fluorescence was analyzed immediately using a ParTec CyFlow flow cytometer (Partec GmbH, Münster, Germany).
• Apoptosis and DNA binding studies […]

[6] abbreviates: pH 5, 20 mM MES buffer, water, 298 K.
The mark [7] stands for this setting: pH 7.4, 20 mM HEPES, water, 298 K.

As to `C(=NNC1=NCc2ccccc2-c2c1[nH]c1ccccc21)c1ccccn1.[Cl][Cu][Cl]` [1nm], in data set [1], the “pKa [Cu(HL^1nm)]^2+” value is 4.32 and the “pKa [Cu(L^1nm)]^+” value turned out to be 7.09.
Turning to `CC(=NNC1=NCc2ccccc2-c2c1[nH]c1ccc(Br)cc21)c1ccccn1.[Cl][Cu][Cl]` [4nm], in data set [2], the “selectivity factor (SF) Colo205” value is given as 2.29 and the IC50 stood at 83 nM. In data set [3], the “selectivity factor (SF) Colo320” value amounted to 0.54 and the IC50 was determined as 350 nM. Further, the IC50 in data set [4] (72 h) is 190 nM.
With `C(=NNc1nc2ccccc2c2c1[nH]c1ccccc12)c1ccccn1.[Cl][Cu][Cl]` [5nm], the entries for the “Thermodynamic solubility (S)” value in data set [5] (setting [6]) and in data set [5] (setting [7]) were 134 µM and 5.7 µM, respectively.
For `Brc1ccc2[nH]c3c(NN=Cc4ccccn4)nc4ccccc4c3c2c1.[Cl][Cu][Cl]` [6nm] the same measures were 8.9 µM and 3.1 µM.
With `C/C(=N\N=C1/NCc2ccccc2-c2c1[nH]c1ccc(Br)cc21)c1ccccn1` [HL^4nm], the IC50 in data set [2] (Homo sapiens, COLO 205) came to 91 nM; in data set [3] (Homo sapiens, COLO 320) it was 8190 nM; in data set [4] (Homo sapiens, MRC5, 72 h) it was 111 nM. The “selectivity factor (SF) Colo205” value in data set [2] came out at 1.22. For the same compound, the “selectivity factor (SF) Colo320” value in data set [3] is recorded as 0.01.
As for `C(=NN=c1[nH]c2ccccc2c2c1[nH]c1ccccc12)c1ccccn1` [HL^5nm], the “Thermodynamic solubility (S)” value in data set [5] (setting [6]) worked out at 1.1 µM; in data set [5] (setting [7]) it was 0.3 µM.
For `c1ccc2c(c1)Nc1c(ccc3ccccc13)S2` [M627, 12H-benzo[α]phenothiazine, reference compound], in the data set with Colo320 cells (10 µM), the “Cell death % Q1” value is 4.59%; the “Early apoptosis % Q3” value is 12.4%; the “Late apoptosis and necrosis % Q2” value is 31.5%. Moreover, in the data set on Colo320 cells (20 µM), the “Cell death % Q1” value turned out to be 7.85%; the “Early apoptosis % Q3” value is reported as 11.1%; the “Late apoptosis and necrosis % Q2” value is recorded as 26.1%.
Turning to `Brc1ccc2[nH]c3c(NN=Cc4ccc(CN5CCOCC5)cn4)nc4ccccc4c3c2c1.[Cl][Cu][Cl]` [compound 6, CuCl2(HL^6)·1.5H2O], the figures for the “Thermodynamic solubility (S)” value in data set [5] (pH 5) and in data set [5] (pH 7.4) were 6.6 µM and 0.4 µM, respectively. For the same compound, the “selectivity factor (SF) Colo205” value in data set [2] was determined as 0.20. Also, the IC50 in data set [2] came out at 1090 nM; in data set [3], 851 nM; in data set [4] (72 h), 221 nM. The “selectivity factor (SF) Colo320” value in data set [3] is on record as 0.26.
For the compound `CC(=NNc1nc2ccccc2c2c1[nH]c1ccccc12)c1ccc(CN2CCOCC2)cn1.[Cl][Cu][Cl]` [compound 7, CuCl2(HL^7)·0.5H2O], the “Thermodynamic solubility (S)” value in data set [5] (pH 5) came out at 89.7 µM; in data set [5] (pH 7.4), 38.3 µM. Moreover, in data set [2], the “selectivity factor (SF) Colo205” value was determined as 6.65. Besides, the results for the IC50 in data set [2], in data set [3] and in data set [4] (72 h) were 98 nM, 149 nM and 652 nM, respectively. In addition, the “selectivity factor (SF) Colo320” value in data set [3] is 4.38.
For `COc1cccc2c1C(=O)c1c(O)c3c(c(O)c1C2=O)C[C@@](O)(C(=O)CO)C[C@@H]3O[C@H]1C[C@H](N)[C@H](O)[C@H](C)O1` [doxorubicin, reference compound], the half-inhibitory concentration (IC50) in data set [2] (Homo sapiens, COLO 205) is 712 nM; in data set [3] (Homo sapiens, COLO 320), 5430 nM; in data set [4] (Homo sapiens, MRC5, 72 h), 11000 nM. Also, in data set [2], the “selectivity factor (SF) Colo205” value amounted to 15.44. In addition, the “selectivity factor (SF) Colo320” value in data set [3] is listed as 2.03.
